Experimental data as given in patent US20240358611A1, “COMPOSITIONS” (SYMRISE AG, priority 2021, published 2024).

Experiments:
[1] = test system: LPS-stimulated, pro-inflammatory synthesis of IL-1B in RAW macrophages; test: LPS-stimulated IL-1B synthesis in RAW 264.7 macrophages (ELISA); format: cell-based, mouse; details: LPS 10 ng/ml, 24 h
Experimental: (§1) RAW 264.7 (mouse macrophage tumor cells) cells were provided from the University of Cordoba in Spain and maintained in RPMI1640 medium containing FCS.
(§2) Cells are seeded in 24-well-plates (approx. 500 000 cells/ml in 1 ml) for ELISA experiments.
(§3) Cells are incubated without or with LPS (10 ng/ml) for 24 h. The pyrozol derivates or additives such as Thymol or Menthol (3 doses, 1, 10, 100 μM) are added 30 min before LPS treatment as single dose or in combination. […] After 24 h, supernatants are removed, centrifuged, and investigated for PGE2 concentrations in EIA (PGE2, from Cayman, isoprostane from Cayman) or ELISA (IL-1B, IL-6, TNF-alpha, Biotechne)). Each dose is investigated 2 times.
(§4) Optimal dose range for additives and substituted azacycles was determined in a preliminary assays dose finding assay (data not shown). Thus, test items are investigated at 10 μM 100 μM or any combination of the two doses for additive effects. Synergism is defined as additive effect surpassing the hypothetical mathematical value of effective doses. The hypothetical value is depicted in all graphs as dashed line.

[2] = test system: LPS-stimulated, pro-inflammatory synthesis of PGE2 in RAW macrophages; test: LPS-stimulated PGE2 synthesis in RAW 264.7 macrophages (EIA); format: cell-based, mouse; details: 10 μM in combination with 10 μM Thymol, LPS 10 ng/ml, 24 h
Experimental: as §1, §2, §3, §4

[3] = in combination with Menthol, 10 μM or 100 μM each, all tested combinations
[4] = in combination with Thymol, 10 μM or 100 μM each

CSC(C)C(=O)N1CCCC[C@@H]1c1ncc(-c2ccc(C)cc2)[nH]1 (stereo partly drawn) [CoNo11, 2-methylsulfanyl-1-[(1R)-2-[5-(p-tolyl)-1H-imidazol-2-yl]-1-piperidyl]-propan-1-one]
effect on LPS-stimulated IL-1 beta synthesis [1, 3]: strong inhibition of IL-1 beta synthesis
effect on LPS-stimulated IL-1 beta synthesis [1, 4]: strong synergistic soothing effect

CCC(C)C(=O)N1CCCCC1c1ncc(-c2ccc(C)cc2)[nH]1 (stereo not drawn) [CoNo164, 2-methyl-1-[2-[5-(p-tolyl)-1H-imidazol-2-yl]-1-piperidyl]butan-1-one]
effect on LPS-stimulated IL-1 beta synthesis [1, 3]: strong inhibition of IL-1 beta synthesis
effect on LPS-stimulated IL-1 beta synthesis [1, 4]: strong synergistic soothing effect
effect on LPS-stimulated PGE2 synthesis [2]: synergistically mitigated PGE2 synthesis

CC[C@H](C)C(=O)N1CCCCC1c1ncc(-c2ccc(C)cc2)[nH]1 (stereo partly drawn) [CoNo166, (2S)-2-methyl-1-[2-[5-(p-tolyl)-1H-imidazol-2-yl]-1-piperidyl]butan-1-one]
effect on LPS-stimulated IL-1 beta synthesis [1, 3]: strong inhibition of IL-1 beta synthesis
effect on LPS-stimulated IL-1 beta synthesis [1, 4]: strong synergistic soothing effect
effect on LPS-stimulated PGE2 synthesis [2]: synergistically mitigated PGE2 synthesis

CC1CCC(C(C)C)C(O)C1 (stereo not drawn) [Menthol]
effect on LPS-stimulated IL-1 beta synthesis ([1]; applied as single substance): stimulates IL-1 beta synthesis
